Reference: ChEMBL document CHEMBL1129915, “A novel RGD containing dodecapeptidomimetic which exhibits selective binding to the v3 receptor” (Bioorg Med Chem Lett, 1997)

Experiments:
Type in all cases: protein-complex assay
[1] = molecular target: Integrin alpha-V/beta-3 (Homo sapiens) (UniProt P05106+P06756); experiment: Binding to Vitronectin receptor (alphaV-beta3) of PMA stimulated human-derived B lymphocyte on vitronectin coated microtiter plates
[2] = molecular target: Integrin alpha-IIb/beta-3 (Homo sapiens) (UniProt P05106+P08514); experiment: Binding to IIb/IIIa on vitronectin coated microtiter plates in ELISA
[3] = molecular target: Fibronectin receptor (Integrin alpha-5/beta-1 and alpha-V/beta-3) (Homo sapiens) (UniProt P05106+P05556+P06756+P08648); experiment: Binding to Fibronectin receptor on vitronectin coated microtiter plates
[4] = molecular target: Integrin alpha-V/beta-5 (Homo sapiens) (UniProt P06756+P18084); experiment: Binding to Vitronectin receptor (alphaV-beta5) coated microtiter plates

Sequence of Fibronectin receptor (Integrin alpha-5/beta-1 and alpha-V/beta-3) (Homo sapiens) (P05106 whole entry, looked up): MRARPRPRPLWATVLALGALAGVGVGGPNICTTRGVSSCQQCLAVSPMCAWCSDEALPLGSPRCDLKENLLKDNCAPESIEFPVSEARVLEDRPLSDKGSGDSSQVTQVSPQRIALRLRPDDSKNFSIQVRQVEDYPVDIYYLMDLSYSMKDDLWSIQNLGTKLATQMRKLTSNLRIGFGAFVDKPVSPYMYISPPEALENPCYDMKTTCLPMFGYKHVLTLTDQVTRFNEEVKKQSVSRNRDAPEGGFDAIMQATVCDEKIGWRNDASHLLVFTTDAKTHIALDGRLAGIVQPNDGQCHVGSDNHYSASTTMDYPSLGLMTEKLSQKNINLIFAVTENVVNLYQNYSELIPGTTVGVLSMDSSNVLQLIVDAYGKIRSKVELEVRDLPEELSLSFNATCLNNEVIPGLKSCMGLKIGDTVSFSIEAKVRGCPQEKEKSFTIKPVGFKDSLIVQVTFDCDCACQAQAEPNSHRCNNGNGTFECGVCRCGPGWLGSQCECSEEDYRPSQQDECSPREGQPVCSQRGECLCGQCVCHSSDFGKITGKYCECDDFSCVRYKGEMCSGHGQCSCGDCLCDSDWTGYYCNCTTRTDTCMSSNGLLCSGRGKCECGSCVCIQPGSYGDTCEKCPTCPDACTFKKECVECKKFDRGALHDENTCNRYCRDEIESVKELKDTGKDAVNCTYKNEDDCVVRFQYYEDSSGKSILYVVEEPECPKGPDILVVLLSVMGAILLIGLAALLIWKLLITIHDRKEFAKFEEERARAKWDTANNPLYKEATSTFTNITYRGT
Sequence of Fibronectin receptor (Integrin alpha-5/beta-1 and alpha-V/beta-3) (Homo sapiens) (P05556 whole entry, looked up): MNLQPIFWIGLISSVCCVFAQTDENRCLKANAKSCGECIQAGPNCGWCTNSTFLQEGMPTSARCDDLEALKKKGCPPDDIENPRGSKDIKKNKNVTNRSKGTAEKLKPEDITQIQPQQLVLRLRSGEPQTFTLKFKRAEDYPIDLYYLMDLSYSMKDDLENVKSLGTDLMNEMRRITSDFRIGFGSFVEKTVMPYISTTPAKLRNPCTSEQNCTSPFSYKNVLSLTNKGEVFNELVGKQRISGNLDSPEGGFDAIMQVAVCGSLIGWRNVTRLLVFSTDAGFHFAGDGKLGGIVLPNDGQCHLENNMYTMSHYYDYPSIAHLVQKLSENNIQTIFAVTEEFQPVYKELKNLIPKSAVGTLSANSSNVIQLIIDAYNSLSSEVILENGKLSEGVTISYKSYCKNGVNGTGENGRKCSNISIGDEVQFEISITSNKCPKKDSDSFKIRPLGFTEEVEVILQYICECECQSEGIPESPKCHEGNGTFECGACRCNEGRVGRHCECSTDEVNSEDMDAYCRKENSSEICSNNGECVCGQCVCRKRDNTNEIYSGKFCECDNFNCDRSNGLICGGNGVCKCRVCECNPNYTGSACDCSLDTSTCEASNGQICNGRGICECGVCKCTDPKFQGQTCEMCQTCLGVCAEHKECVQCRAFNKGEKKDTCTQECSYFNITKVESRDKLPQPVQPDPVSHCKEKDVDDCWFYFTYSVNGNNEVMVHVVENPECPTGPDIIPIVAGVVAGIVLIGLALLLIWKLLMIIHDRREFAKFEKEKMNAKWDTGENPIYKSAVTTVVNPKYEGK
Sequence of Fibronectin receptor (Integrin alpha-5/beta-1 and alpha-V/beta-3) (Homo sapiens) (P06756 whole entry, looked up): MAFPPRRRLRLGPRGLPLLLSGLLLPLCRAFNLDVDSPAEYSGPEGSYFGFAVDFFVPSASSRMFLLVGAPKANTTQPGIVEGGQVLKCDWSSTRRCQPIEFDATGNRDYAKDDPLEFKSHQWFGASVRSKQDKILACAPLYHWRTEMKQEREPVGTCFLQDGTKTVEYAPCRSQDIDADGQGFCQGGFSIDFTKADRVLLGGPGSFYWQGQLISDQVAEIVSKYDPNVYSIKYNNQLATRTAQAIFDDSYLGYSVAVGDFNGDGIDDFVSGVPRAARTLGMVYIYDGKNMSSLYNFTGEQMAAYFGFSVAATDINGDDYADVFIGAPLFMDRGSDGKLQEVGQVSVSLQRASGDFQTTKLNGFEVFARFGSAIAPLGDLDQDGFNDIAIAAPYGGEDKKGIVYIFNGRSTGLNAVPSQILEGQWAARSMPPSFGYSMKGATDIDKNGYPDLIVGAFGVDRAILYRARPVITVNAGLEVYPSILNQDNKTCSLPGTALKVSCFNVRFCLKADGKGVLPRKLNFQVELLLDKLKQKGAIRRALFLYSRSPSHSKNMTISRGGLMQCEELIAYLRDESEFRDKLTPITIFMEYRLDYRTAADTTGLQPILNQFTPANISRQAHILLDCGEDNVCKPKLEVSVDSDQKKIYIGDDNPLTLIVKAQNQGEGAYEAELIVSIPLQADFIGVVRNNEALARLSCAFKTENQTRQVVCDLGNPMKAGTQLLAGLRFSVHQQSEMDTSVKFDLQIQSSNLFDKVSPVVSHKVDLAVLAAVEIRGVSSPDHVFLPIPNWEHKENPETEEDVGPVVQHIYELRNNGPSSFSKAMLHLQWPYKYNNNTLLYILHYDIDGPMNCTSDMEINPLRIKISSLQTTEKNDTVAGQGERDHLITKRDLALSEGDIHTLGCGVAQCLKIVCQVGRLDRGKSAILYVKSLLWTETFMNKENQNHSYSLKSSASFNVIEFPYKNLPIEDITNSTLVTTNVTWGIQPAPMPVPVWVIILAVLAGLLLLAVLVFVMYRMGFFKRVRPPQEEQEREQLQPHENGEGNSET
Sequence of Fibronectin receptor (Integrin alpha-5/beta-1 and alpha-V/beta-3) (Homo sapiens) (P08648 whole entry, looked up): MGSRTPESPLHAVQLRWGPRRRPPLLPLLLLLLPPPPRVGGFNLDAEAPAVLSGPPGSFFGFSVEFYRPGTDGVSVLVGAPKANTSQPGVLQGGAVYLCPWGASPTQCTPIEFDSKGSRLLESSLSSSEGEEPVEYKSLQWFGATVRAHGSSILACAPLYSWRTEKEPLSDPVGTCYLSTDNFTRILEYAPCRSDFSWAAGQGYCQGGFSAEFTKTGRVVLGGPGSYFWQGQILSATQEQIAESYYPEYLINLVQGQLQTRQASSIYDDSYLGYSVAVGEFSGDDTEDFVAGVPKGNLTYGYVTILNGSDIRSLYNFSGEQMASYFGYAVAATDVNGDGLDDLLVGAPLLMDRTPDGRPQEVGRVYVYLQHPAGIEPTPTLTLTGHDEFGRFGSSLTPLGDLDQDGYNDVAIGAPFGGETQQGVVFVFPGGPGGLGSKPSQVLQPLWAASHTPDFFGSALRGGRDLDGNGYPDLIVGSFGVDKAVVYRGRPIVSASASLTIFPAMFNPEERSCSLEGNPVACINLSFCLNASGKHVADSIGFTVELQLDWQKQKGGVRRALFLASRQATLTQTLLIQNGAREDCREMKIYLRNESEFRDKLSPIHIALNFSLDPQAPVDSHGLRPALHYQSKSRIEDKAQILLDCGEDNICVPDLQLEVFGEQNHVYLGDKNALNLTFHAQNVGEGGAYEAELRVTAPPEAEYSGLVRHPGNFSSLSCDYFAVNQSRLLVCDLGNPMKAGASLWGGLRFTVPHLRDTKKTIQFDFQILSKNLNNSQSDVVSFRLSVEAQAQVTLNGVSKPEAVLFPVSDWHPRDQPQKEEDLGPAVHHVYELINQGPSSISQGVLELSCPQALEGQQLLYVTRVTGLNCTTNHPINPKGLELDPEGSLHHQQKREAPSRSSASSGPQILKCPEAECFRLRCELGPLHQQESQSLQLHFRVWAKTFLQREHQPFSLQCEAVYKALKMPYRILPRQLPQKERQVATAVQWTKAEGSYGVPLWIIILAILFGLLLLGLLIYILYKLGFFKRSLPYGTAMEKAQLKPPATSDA

NCC(=O)N[C@@H](CCCN=C(N)N)C(=O)NCC(=O)N[C@@H](CC(=O)O)C(=O)N[C@@H](CO)C(=O)N1CCC[C@H]1C(=O)O
Binding activity [1]: 50 µM | Binding activity [2]: 0.8 µM | Binding activity [3]: 0.02 µM | Binding activity [4]: 0.582 µM
